Laboratory results reported in ChEMBL document CHEMBL1201862, “PubChem BioAssay data set” (2004).
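Cells were grown in 96-well plates and exposed to each compound for 48 hours at five concentrations; endpoints were interpolated linearly between bracketing concentrations, or set to the highest concentration if not reached. Abbreviation: GI50, concentration required for 50% inhibition of growth.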 Activity calls are given as the source filed them. Rule as the data show it: active = GI50 up to about 1.1 µM and inactive = higher.

Key:
Assay in all cases: DTP human tumour cell line panel, 48 h
EKVX = tested on: EKVX
HCC 2998 = tested on: HCC 2998
HCT-116 = tested on: HCT-116
HL-60 = tested on: HL-60
HOP-62 = tested on: HOP-62
IGROV-1 = tested on: IGROV-1
M14 = tested on: M14
MDA-MB-231 = tested on: MDA-MB-231
MOLT-4 = tested on: MOLT-4
NCI-H226 = tested on: NCI-H226
NCI-H522 = tested on: NCI-H522
OVCAR-3 = tested on: OVCAR-3
PC-3 = tested on: PC-3
SK-MEL-5 = tested on: SK-MEL-5
T47D = tested on: T47D
MCF7 = tested on: MCF7
BT-549 = tested on: BT-549
RPMI-8226 = tested on: RPMI-8226

Measured: GI50

O=c1c2ccccc2n2c(-c3ccc(O)cc3)nnc2n1-c1ccccc1
inactive: EKVX 17 µM | HCC 2998 49.1 µM | HCT-116 20.9 µM | HL-60 62.8 µM | HOP-62 20.4 µM | IGROV-1 18.1 µM | M14 18.2 µM | MDA-MB-231 17.1 µM | MOLT-4 36.1 µM | NCI-H226 27 µM | NCI-H522 18.2 µM | OVCAR-3 18.2 µM | PC-3 17.9 µM | SK-MEL-5 18.5 µM | T47D 13.4 µM

CCc1cc2c(cc1O)CC[C@@H]1[C@@H]2CC[C@]2(C)[C@@H](O)CC[C@@H]12
inactive: EKVX 9.71 µM | HCC 2998 10.2 µM | HL-60 3.02 µM | HOP-62 6.14 µM | IGROV-1 11.2 µM | M14 6.49 µM | MCF7 3.63 µM | MDA-MB-231 7.93 µM | MOLT-4 5 µM | NCI-H226 12.2 µM | NCI-H522 8.81 µM | PC-3 12.2 µM | SK-MEL-5 7.11 µM | T47D 7.48 µM

N#Cc1c(O)c(/N=N/c2ccccc2F)c(=O)n2c1[nH]c1ccccc12
inactive: BT-549 60 µM | EKVX > 100 µM | HCC 2998 53.6 µM | HCT-116 26.6 µM | HL-60 33 µM | HOP-62 43.7 µM | IGROV-1 74.8 µM | M14 22.4 µM | MCF7 32.7 µM | MDA-MB-231 22.2 µM | NCI-H226 33.7 µM | NCI-H522 27.9 µM | OVCAR-3 36 µM | PC-3 30.3 µM | SK-MEL-5 42 µM

Cc1c(O)nc(-n2[nH]c3c(c2=O)CCCC3)[nH]c1=O
inactive: BT-549 > 100 µM | EKVX > 100 µM | HCT-116 > 100 µM | HL-60 > 100 µM | IGROV-1 > 100 µM | M14 > 100 µM | MDA-MB-231 > 100 µM | MOLT-4 > 100 µM | NCI-H226 > 100 µM | NCI-H522 > 100 µM | PC-3 > 100 µM | RPMI-8226 > 100 µM | SK-MEL-5 > 100 µM | T47D > 100 µM

COc1ccc(C)cc1NC(=S)N/N=C/c1ccco1
inactive: BT-549 53.8 µM | EKVX 16.7 µM | HCC 2998 36.5 µM | HCT-116 36.2 µM | HL-60 22 µM | HOP-62 48.3 µM | IGROV-1 35.8 µM | M14 34.6 µM | MCF7 4.94 µM | MOLT-4 31.7 µM | NCI-H226 25.9 µM | NCI-H522 22.8 µM | OVCAR-3 49.2 µM | PC-3 43.4 µM | RPMI-8226 21.4 µM | SK-MEL-5 14.7 µM | T47D 25.4 µM

COc1cc(OC)cc(-n2c(N)c(-c3nc4ccccc4n3C)c3ccc([N+](=O)[O-])cc3c2=O)c1
inactive: BT-549 > 100 µM | HCC 2998 > 100 µM | HCT-116 > 100 µM | MDA-MB-231 80.5 µM | NCI-H226 70.6 µM | NCI-H522 55.8 µM | PC-3 > 100 µM | RPMI-8226 > 100 µM | SK-MEL-5 > 100 µM | T47D > 100 µM

CCNC(=O)NNc1ncnc2c1c(-c1ccc(Cl)cc1)cn2-c1ccc(C)cc1
inactive: EKVX 20.2 µM | HCC 2998 17.5 µM | HCT-116 14.9 µM | HL-60 16 µM | HOP-62 20.4 µM | IGROV-1 20.5 µM | M14 17.7 µM | MDA-MB-231 19.6 µM | MOLT-4 16.4 µM | NCI-H226 20 µM | NCI-H522 17.9 µM | OVCAR-3 16.7 µM | PC-3 17.7 µM | SK-MEL-5 14.7 µM | T47D 14.6 µM

O=C(CC(c1ccccc1)C(C(=O)c1ccncc1)C(CC(=O)c1ccncc1)c1ccccc1)c1ccncc1 (stereo not given)
inactive: BT-549 18.5 µM | EKVX 34.6 µM | HCC 2998 > 100 µM | HCT-116 > 100 µM | HL-60 > 100 µM | HOP-62 44.5 µM | IGROV-1 28.4 µM | M14 > 100 µM | MDA-MB-231 31.6 µM | MOLT-4 > 100 µM | NCI-H226 38.5 µM | OVCAR-3 75.9 µM | PC-3 46.2 µM | RPMI-8226 > 100 µM | SK-MEL-5 > 10 µM | T47D 29.4 µM

Cc1cc(NS(=O)(=O)c2ccc(/N=N/c3c(Nc4ccccc4)nn(-c4ccc(S(=O)(=O)Nc5ccncn5)cc4)c3C)cc2)no1
inactive: EKVX > 100 µM | HCC 2998 > 100 µM | HCT-116 > 100 µM | HOP-62 > 100 µM | IGROV-1 > 100 µM | M14 > 100 µM | MCF7 > 100 µM | MDA-MB-231 > 100 µM | MOLT-4 > 100 µM | NCI-H226 > 100 µM | NCI-H522 > 100 µM | OVCAR-3 > 100 µM | PC-3 > 100 µM | SK-MEL-5 > 100 µM | T47D > 100 µM

O=C1/C(=C/c2ccccc2O)N=C(c2ccccc2)N1c1nc2ccccc2s1
inactive: EKVX 24.5 µM | HCC 2998 13.7 µM | HCT-116 14.3 µM | HL-60 1.21 µM | HOP-62 18.6 µM | IGROV-1 15.6 µM | M14 17.1 µM | MCF7 3.37 µM | MDA-MB-231 18.3 µM | MOLT-4 19.5 µM | NCI-H226 22.7 µM | NCI-H522 4.06 µM | OVCAR-3 7.43 µM | PC-3 15.7 µM | RPMI-8226 19.1 µM | SK-MEL-5 7.57 µM | T47D 21.1 µM

O=C(NNC(=O)c1c(Cl)c(Cl)c(Cl)c(Cl)c1-c1nc2ccccc2[nH]1)c1ccc(Cl)cc1
inactive: BT-549 46.1 µM | EKVX 44.2 µM | HCT-116 46.3 µM | HL-60 36.1 µM | HOP-62 61.9 µM | IGROV-1 17.5 µM | M14 35.5 µM | MCF7 34.9 µM | MOLT-4 38.9 µM | NCI-H226 43.4 µM | NCI-H522 49.8 µM | OVCAR-3 65.2 µM | PC-3 55 µM | RPMI-8226 33 µM | SK-MEL-5 38.3 µM | T47D 21.7 µM

CCCCN1/C(=N/Nc2n[nH]c(=O)c3ccccc23)SCC1c1ccc(Cl)cc1 (stereo not given)
inactive: EKVX 4.27 µM | HCT-116 13.9 µM | HL-60 14.9 µM | HOP-62 6.24 µM | IGROV-1 6.43 µM | M14 5.55 µM | MCF7 10.6 µM | MDA-MB-231 20.6 µM | NCI-H226 10.4 µM | NCI-H522 11.8 µM | OVCAR-3 15 µM | PC-3 14 µM | RPMI-8226 4.72 µM | SK-MEL-5 3.55 µM | T47D 4.29 µM

CCNC12CCC(C1)C(C)(C)C2=O (stereo not given)
inactive: BT-549 > 100 µM | EKVX > 100 µM | HCC 2998 > 100 µM | HCT-116 > 100 µM | HL-60 > 100 µM | HOP-62 > 100 µM | IGROV-1 > 100 µM | M14 > 100 µM | MCF7 > 100 µM | MOLT-4 > 100 µM | NCI-H226 > 100 µM | OVCAR-3 > 100 µM | PC-3 > 100 µM | RPMI-8226 > 100 µM | SK-MEL-5 > 100 µM | T47D > 100 µM

Cc1ccc(S(=O)(=O)N2CCCN(S(=O)(=O)c3ccc(C)cc3)CCN(S(=O)(=O)c3ccc(C)cc3)CCCSCC2)cc1
inactive: BT-549 > 100 µM | EKVX > 100 µM | HCC 2998 > 100 µM | HCT-116 > 100 µM | HL-60 > 100 µM | HOP-62 54.5 µM | IGROV-1 > 100 µM | M14 > 100 µM | MCF7 > 100 µM | MDA-MB-231 59.3 µM | MOLT-4 > 100 µM | NCI-H226 > 100 µM | OVCAR-3 > 100 µM | RPMI-8226 > 100 µM | SK-MEL-5 > 100 µM | T47D > 100 µM

COc1ccc(/C=C2\C(=O)N(C(=O)Cc3ccccc3)N=C2C)cc1OC
inactive: EKVX > 100 µM | HCC 2998 > 100 µM | HCT-116 > 100 µM | HL-60 > 100 µM | HOP-62 > 100 µM | M14 > 100 µM | MOLT-4 > 100 µM | NCI-H226 > 100 µM | NCI-H522 > 100 µM | OVCAR-3 > 100 µM | RPMI-8226 > 100 µM

O=C1CCC2(c3ccc(F)cc3)Nc3ncncc3N12 (stereo not given)
inactive: BT-549 > 10 µM | EKVX 9.93 µM | HCC 2998 > 10 µM | IGROV-1 > 10 µM | M14 > 10 µM | MCF7 2.32 µM | MOLT-4 > 10 µM | NCI-H226 > 10 µM | NCI-H522 > 10 µM | OVCAR-3 > 10 µM | PC-3 > 10 µM

CC1(C)N=c2c(ncn2N)=C(C(N)=O)N1
inactive: EKVX > 100 µM | HCC 2998 > 100 µM | HCT-116 > 100 µM | HL-60 > 100 µM | HOP-62 > 100 µM | IGROV-1 > 100 µM | M14 > 100 µM | MCF7 > 100 µM | MDA-MB-231 > 100 µM | NCI-H226 > 100 µM | NCI-H522 > 100 µM | OVCAR-3 > 100 µM | PC-3 > 100 µM | RPMI-8226 > 100 µM | SK-MEL-5 > 100 µM | T47D > 100 µM

CN(C)c1ccc(/N=C2/NC(=N\c3ccccc3)/C(=N/c3ccccc3)S2)cc1
inactive: EKVX > 100 µM | HCC 2998 > 100 µM | HCT-116 85.3 µM | HL-60 > 100 µM | HOP-62 41.6 µM | IGROV-1 > 100 µM | M14 > 100 µM | MCF7 19.9 µM | MDA-MB-231 > 100 µM | MOLT-4 89.1 µM | NCI-H226 > 100 µM | NCI-H522 5.64 µM | OVCAR-3 > 100 µM | PC-3 > 100 µM | SK-MEL-5 > 100 µM | T47D 53.1 µM
